Test results published in patent publication EP4725957A1, “GROUP OF CYCLIC ALKALINE LIPOPEPTIDE COMPOUNDS, AND PREPARATION METHOD THEREFOR AND USE THEREOF” (Institute of Medicinal Biotechnology, Chinese Academy of …, priority 2023, dated 2024).
Values after ≈ are worked out from the molar mass of the structure shown. Bridge positions count the residues as written; N and C are the ends. Square brackets hold non-standard residues; d marks the D form. Peptide text beside a SMILES is read from it. * marks the point of attachment. Heptanoyl(6-Me) = CC(C)CCCCC(=O)*; Nonanoyl = CCCCCCCCC(=O)*; X1 = CC[C@H](C)CCCCC(=O)*; dDab = NCC[C@@H](N)C(=O)O; Heptanoyl = CCCCCCC(=O)*; Octanoyl = CCCCCCCC(=O)*; Dab = NCC[C@H](N)C(=O)O; Dap = NC[C@H](N)C(=O)O

Assays:
Assay type in all cases: cell-based
[1] = tested on: Acinetobacter baumannii ABA19-1; conditions: ABA19-1
How it was run: (§1)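 Broth microdilution MIC per CLSI in MH broth, compounds 2-fold diluted to final 64–0.03 mg/L. Inoculum (2-4) × 10^5 CFU/mL final, from 0.5 McFarland suspensions of 18-24 h colonies. Plates sealed and incubated 35-37°C for 16-20 h.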

[2] = tested on: Acinetobacter baumannii NCTC 13304 (OXA-27); conditions: NCTC 13304
How it was run: as §1

[3] = tested on: Escherichia coli ATCC BAA-2340 (KPC); conditions: ATCC BAA-2340
How it was run: as §1

[4] = tested on: Escherichia coli ATCC BAA-2523; conditions: ATCC BAA-2523
How it was run: as §1

[5] = tested on: Klebsiella pneumoniae ATCC BAA-1705 (KPC); conditions: ATCC BAA-1705
How it was run: as §1

[6] = tested on: Klebsiella pneumoniae KPN+19-15; conditions: KPN+19-15
How it was run: as §1

[7] = tested on: Pseudomonas aeruginosa ATCC 27853; conditions: ATCC 27853
How it was run: as §1

[8] = tested on: Pseudomonas aeruginosa PAE19-3; conditions: PAE19-3
How it was run: as §1

[9] = Nephrotoxicity assay: in vitro cytotoxicity of HK-2 cells by CCK-8 assay; conditions: human, HK-2 cells (human renal), 72 h incubation with drug-containing medium
How it was run: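 HK-2 human renal cells in RPMI-1640 with 10% FBS were exposed to compounds at final 12.5–500 µg/mL for 72 h, then CCK-8 for 3 h and OD450 read. Viability was normalised to drug-free wells; IC50 came from logarithmic regression over three repeats, with polymyxin B as positive drug.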

Row | Structure (SMILES) | MIC [1] | MIC [2] | MIC [3] | MIC [4] | MIC [5] | MIC [6] | MIC [7] | MIC [8] | IC50 at 72 h [9]
1 | CCCCCCCC(=O)N[C@@H](CN)C(=O)N[C@H](C(=O)N[C@H](CCN)C(=O)N[C@H]1CCNC(=O)[C@H]([C@@H](C)O)NC(=O)[C@H](CCN)NC(=O)[C@H](CCN)NC(=O)[C@H](CC(C)C)NC(=O)[C@@H](Cc2ccccc2)NC(=O)[C@H](CCN)NC1=O)[C@@H](C)O [Compound 93, Octanoyl-Dap-Thr-D-Dab-ring(4-10)[Dab-Dab-D-Phe-Leu-Dab-Dab-Thr]] (Octanoyl-[Dap]T[dDab][Dab][Dab][dF]L[Dab][Dab]T; lactam 4-C) | 0.03 µg/mL (≈ 0.0255 µM) | 0.03 µg/mL (≈ 0.0255 µM) | 0.03 µg/mL (≈ 0.0255 µM) | 0.03 µg/mL (≈ 0.0255 µM) | 0.03 µg/mL (≈ 0.0255 µM) | 0.03 µg/mL (≈ 0.0255 µM) | 1 µg/mL (≈ 0.851 µM) | 1 µg/mL (≈ 0.851 µM) | 239 ± 19.1 µg/mL (≈ 204 µM)
2 | CCCCCCC(=O)N[C@@H](CN)C(=O)N[C@H](C(=O)N[C@H](CO)C(=O)N[C@H]1CCNC(=O)[C@H]([C@@H](C)O)NC(=O)[C@H](CCN)NC(=O)[C@H](CCN)NC(=O)[C@H]([C@@H](C)O)NC(=O)[C@@H](Cc2ccccc2)NC(=O)[C@H](CCN)NC1=O)[C@@H](C)O [Compound 54, Heptanoyl-Dap-Thr-D-Ser-ring(4-10)[Dab-Dab-D-Phe-Thr-Dab-Dab-Thr]] (Heptanoyl-[Dap]T[dS][Dab][Dab][dF]T[Dab][Dab]T; lactam 4-C) | 0.25 µg/mL (≈ 0.22 µM) | 0.25 µg/mL (≈ 0.22 µM) | 0.03 µg/mL (≈ 0.0264 µM) | 0.03 µg/mL (≈ 0.0264 µM) | 0.25 µg/mL (≈ 0.22 µM) | 0.5 µg/mL (≈ 0.44 µM) | 64 µg/mL (≈ 56.3 µM) | 8 µg/mL (≈ 7.04 µM) | > 500 µg/mL
3 | CC(C)CCCCC(=O)N[C@@H](CCN)C(=O)N[C@H](C(=O)N[C@H](CO)C(=O)N[C@H]1CCNC(=O)[C@H]([C@@H](C)O)NC(=O)[C@H](CCN)NC(=O)[C@H](CCN)NC(=O)[C@H]([C@@H](C)O)NC(=O)[C@@H](Cc2ccccc2)NC(=O)[C@H](CN)NC1=O)[C@@H](C)O [Compound 62, 6-methylheptanoyl-Dab-Thr-D-Ser-ring(4-10)[Dab-Dap-D-Phe-Thr-Dab-Dab-Thr]] ({Heptanoyl(6-Me)}-[Dab]T[dS][Dab][Dap][dF]T[Dab][Dab]T; lactam 4-C) | 0.25 µg/mL (≈ 0.217 µM) | 0.25 µg/mL (≈ 0.217 µM) | 0.06 µg/mL (≈ 0.0522 µM) | 0.06 µg/mL (≈ 0.0522 µM) | 0.25 µg/mL (≈ 0.217 µM) | 0.5 µg/mL (≈ 0.435 µM) | 64 µg/mL (≈ 55.6 µM) | 4 µg/mL (≈ 3.48 µM) | > 500 µg/mL
4 | CCCCCCCCC(=O)N[C@@H](CCN)C(=O)N[C@H](C(=O)N[C@H](CO)C(=O)N[C@H]1CCNC(=O)[C@H]([C@@H](C)O)NC(=O)[C@H](CCN)NC(=O)[C@H](CCN)NC(=O)[C@H]([C@@H](C)O)NC(=O)[C@@H](Cc2ccccc2)NC(=O)[C@H](CN)NC1=O)[C@@H](C)O [Compound 65, Nonanoyl-Dab-Thr-D-Ser-ring(4-10)[Dab-Dap-D-Phe-Thr-Dab-Dab-Thr]] (Nonanoyl-[Dab]T[dS][Dab][Dap][dF]T[Dab][Dab]T; lactam 4-C) | 0.25 µg/mL (≈ 0.215 µM) | 0.25 µg/mL (≈ 0.215 µM) | 0.25 µg/mL (≈ 0.215 µM) | 0.25 µg/mL (≈ 0.215 µM) | 0.25 µg/mL (≈ 0.215 µM) | 0.5 µg/mL (≈ 0.429 µM) | 64 µg/mL (≈ 55 µM) | 8 µg/mL (≈ 6.87 µM) | 370 ± 31.8 µg/mL (≈ 318 µM)
5 | CC[C@H](C)CCCCC(=O)N[C@@H](CCN)C(=O)N[C@H](C(=O)N[C@@H](CN)C(=O)N[C@H]1CCNC(=O)[C@H]([C@@H](C)O)NC(=O)[C@H](CCN)NC(=O)[C@H](CCN)NC(=O)[C@H](CC(C)C)NC(=O)[C@@H](Cc2ccccc2)NC(=O)[C@H](CCN)NC1=O)[C@@H](C)O [Compound 36, (S)-6-methyloctanoyl-Dab-Thr-Dap-ring(4-10)[Dab-Dab-D-Phe-Leu-Dab-Dab-Thr]] (X1-[Dab]T[Dap][Dab][Dab][dF]L[Dab][Dab]T; lactam 4-C) | 0.03 µg/mL (≈ 0.0252 µM) | 0.03 µg/mL (≈ 0.0252 µM) | 0.03 µg/mL (≈ 0.0252 µM) | 0.03 µg/mL (≈ 0.0252 µM) | 0.03 µg/mL (≈ 0.0252 µM) | 0.03 µg/mL (≈ 0.0252 µM) | 0.03 µg/mL (≈ 0.0252 µM) | 0.25 µg/mL (≈ 0.21 µM) | 237 ± 5.3 µg/mL (≈ 199 µM)
